Source: US20260297571A1, “METHODS FOR DECREASING NEURONAL DEATH, INFLAMMATION, AND DEGENERATION” (The Johns Hopkins University, priority 2023, published 2026)

Legend:
[1] = tested on: poly-GR expressing neurons (EEA1^+ early endosome); test: EEA1 immunofluorescence staining in i^3Neurons; assay type: cell-based, human; conditions: DJ001 3.7 μM; 3-days GR50 i^3Neurons
Text: During early endosome formation, Rab5 recruits EEA1 to the early endosomal membrane via local PI3P, thus EEA1 expression is considered a secondary indicator of PI3P level. […] EEA1^+ endosome formation was increased upon knocking down PTPσ in poly-GR expressing neurons (FIGS. 2C-2D).
Cell survival assay. I'Neurons were infected with lentivirus to transduce GR50, PR50, BFP or GFP expression in the cells on day 5, day 7, day 9 or day 11 depending on the experimental timeline. For inducible DPRs, the virus was added to neurons on differentiation day 6. The expression was initiated by adding Dox to the differentiation medium (induction day 1). […]
Confocal microscopy and image quantification. […] For GFP-2×FYVE florescence intensity quantification, at least 6 images were taken for each replica with more than 30 neurons. […] The fluorescence intensity of the region of interest was measured and then minus the background intensity. For the quantification of EEA1^+ and LAMP1^+ puncta, EEA1 or LAMP1 channel was merged with MAP2. The puncta within MAP2 region were counted and compared among groups. For the quantification in mouse brains, at least 6 serial sections were imaged to quantify the number of neurons, astrocyte, and microglia in mouse brains. For glutamate-induced neurotoxicity assays, 5 images of PI staining will be taken at 20× for each well to quantify dead neurons. […]

[2] = tested on: poly-GR expressing neurons; test: Cell survival assay, GR50 expressing i^3Neurons; assay type: cell-based, human
Protocol: (§1) Cell survival assay. I'Neurons were infected with lentivirus to transduce GR50, PR50, BFP or GFP expression in the cells on day 5, day 7, day 9 or day 11 depending on the experimental timeline. For inducible DPRs, the virus was added to neurons on differentiation day 6. The expression was initiated by adding Dox to the differentiation medium (induction day 1). To validate the effect of the drugs on neuron survival, DPR was transduced for 7 days. i^3Neurons were treated with 5 μM ASOs for 7 days or 2.5 μM ISP (Sigma, Cat. No. 5343390001) or 3.7 μM DJ001 (Sigma, Cat. No. SML2787) for 3 days before harvesting. To examine the effect of the drugs on other cellular phenotypes, DPR was transduced for 3 days. 2.5 μM ISP or 3.7 μM DJ001 was added to the culture medium on the same day, followed by FYVE reporter transduction 1 day later.
(§2) To measure cell survival, bright-field images were captured on day 14 using a Nikon TS-2 microscope. At least 4 images were taken at 10× object for each replica. At least 2 replicas were included for each batch. All experiments were performed at least twice. To examine dead neurons, PI (Thermo Fisher, Cat. No. P1304MP) dye was added to the culture medium 30 min before harvesting. Images of bright field and Cy3 channel were acquired, followed by quantifying the surviving neurons and PI^+ signals blindly.

[3] = tested on: poly-PR expressing neurons; test: Cell survival assay, PR50 expressing i^3Neurons; assay type: cell-based, human
Protocol: as §1, §2

[4] = tested on: PTPσ; conditions: DJ001; cited from earlier work
[5] = tested on: hematopoietic stem cell; conditions: in vitro and in the mouse model; cited from earlier work
[6] = tested on: PIKFYVE; conditions: YM-201636; cited from earlier work
[7] = tested on: C9-iPSNs; test: Glutamate-induced excitotoxicity assay in C9 iPSNs/iMNs; assay type: cell-based, human; conditions: 10 μM glutamate
Protocol: Glutamate toxicity contributes to the disease onset/progression in ALS due to the loss of glutamate transporter 1 (EAAT2). […] To evaluate the effect of PTPσ knockdown to the physiology of C9-iPSNs, glutamate-induced excitotoxicity assays were performed and the percentage of cell death (PI^+) was quantified after the treatment with or without PTPσ knockdown. […] Taken together, the evidence supports PTPσ knockdown as beneficial for homeostasis of endo-lysosomal system, neuronal function, and survival in the C9-iPSNs.
C9 patient iPSNs differentiation (iMNs differentiation). […]
Glutamate-induced excitotoxicity assay. […] Five pairs of age and gender-matched control and C9ORF72-ALS iPSNs were analyzed.
Confocal microscopy and image quantification. […] For GFP-2×FYVE florescence intensity quantification, at least 6 images were taken for each replica with more than 30 neurons. […] The fluorescence intensity of the region of interest was measured and then minus the background intensity. For the quantification of EEA1^+ and LAMP1^+ puncta, EEA1 or LAMP1 channel was merged with MAP2. The puncta within MAP2 region were counted and compared among groups. For the quantification in mouse brains, at least 6 serial sections were imaged to quantify the number of neurons, astrocyte, and microglia in mouse brains. […] At least 500 cells from each biological replicate will be counted for statistical comparison.

O=C(/C=C\Nc1cccc([N+](=O)[O-])c1)c1ccccc1 [DJ001, (Z)-3-((3-nitrophenyl)amino)-1-phenylprop-2-en-1-one]
formation of EEA1^+ early endosome [1]: significantly increased
poly-GR expressing neuron survival ([2]; DJ001 3.7 μM, GR50 i^3Neurons): improves
poly-PR expressing neuron survival ([3]; DJ001, PR50 i^3Neurons): improves
specificity of PTPσ inhibition [4]: highly specific inhibitor
hematopoietic stem cell regeneration [5]: can promote hematopoietic stem cell regeneration

CC(C)(O)CNc1ncc(-c2ccnc(Nc3ccnc(Cl)c3)n2)c(CC2CC2)n1 [VPS34-IN1]
rescue effect of PTPσ knockdown on GR50 neuron survival ([2]; VPS34-IN1 0.5 μM, 2 days, PTPσ knockdown GR50 i^3Neurons): completely diminished
rescue by PTPσ knockdown, PR50 neurons ([3]; VPS34 inhibitor, PTPσ knockdown PR50 neurons): abolished

Nc1ccc(C(=O)Nc2cccc(-c3nc(N4CCOCC4)c4oc5ncccc5c4n3)c2)cn1 [YM-201636]
rescue effect in poly-GR expressing neurons (survival) ([2]; YM-201636 0.5 μM, GR50 i^3Neurons): robust rescue effect
PI3P levels via inhibition of PI3P to PI(3,5)P2 conversion [6]: can boost PI3P levels

N[C@@H](CCC(=O)O)C(=O)O [glutamate]
PI^+ dead cells in control shRNA C9-iPSNs [7]: increased
